Measured values from patent US20240425478A1, “CYCLOPENTYLPYRAZOLE CDK2 INHIBITORS” (Genentech, Inc., priority 2021, published 2024).
pIC50, pKi: −log10 of the molar value. Read-outs that look alike come from different tables or passages of the source.

How the values were obtained:
[1] = biological target: T1, Cyclin Dependent Kinase 1/Cyclin A2 (CDK1-cycA2) (Homo sapiens, UniProt P06493); test: CDK1-cycA2 TR-FRET (Lance) enzyme assay; assay type: biochemical; conditions: for pKi: Table O, enzymatic assay; for FS CDK1/CDK2: fold selectivity, enzymatic Ki ratio
T1 construct: purchased ProQinase 0134-0054-1
T1 sequence (P06493 whole entry): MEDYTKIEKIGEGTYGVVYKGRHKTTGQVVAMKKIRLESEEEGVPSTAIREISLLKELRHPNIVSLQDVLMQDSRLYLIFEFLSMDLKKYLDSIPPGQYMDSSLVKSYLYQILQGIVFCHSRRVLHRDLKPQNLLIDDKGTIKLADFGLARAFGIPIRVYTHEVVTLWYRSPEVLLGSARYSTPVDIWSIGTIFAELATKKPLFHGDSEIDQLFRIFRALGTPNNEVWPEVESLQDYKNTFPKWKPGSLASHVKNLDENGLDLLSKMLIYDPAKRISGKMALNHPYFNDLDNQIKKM
T1 sequence (P20248 whole entry partner): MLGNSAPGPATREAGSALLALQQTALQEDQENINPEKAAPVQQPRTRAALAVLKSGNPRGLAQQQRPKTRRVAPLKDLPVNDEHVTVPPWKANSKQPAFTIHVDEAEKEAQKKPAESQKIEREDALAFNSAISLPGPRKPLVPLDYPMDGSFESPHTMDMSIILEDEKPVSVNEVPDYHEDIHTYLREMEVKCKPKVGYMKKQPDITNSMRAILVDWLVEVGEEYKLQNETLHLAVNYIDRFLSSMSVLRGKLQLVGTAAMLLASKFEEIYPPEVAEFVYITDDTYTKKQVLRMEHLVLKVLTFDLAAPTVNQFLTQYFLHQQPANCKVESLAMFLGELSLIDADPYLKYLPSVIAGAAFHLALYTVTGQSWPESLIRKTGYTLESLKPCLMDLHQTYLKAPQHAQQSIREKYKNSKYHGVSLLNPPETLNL
Method in brief: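 TR-FRET (Lance) detection of phospho-4E-BP1 with a europium-labelled antibody after EDTA quench (15 mM final); signal taken as acceptor/donor ratio. Enzyme and compound were pre-incubated 30 min in HEPES pH 7.5 buffer with MgCl2, TCEP, BGG and Brij 35. Ki derived by Morrison fit.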

[2] = biological target: T2, Cyclin Dependent Kinase 2/Cyclin E1 (CDK2-cycE1) (Homo sapiens, UniProt P24941); test: CDK2-cycE1 TR-FRET (LANCE) enzyme assay; assay type: biochemical; conditions: for pKi: enzymatic assay, read-out: CDK2 Ki; for FS CDK1/CDK2 / FS CDK4/CDK2: fold selectivity; for FS CDK1/CDK2: enzymatic CDK1 Ki over CDK2 Ki; for FS CDK4/CDK2: enzymatic CDK4 Ki over CDK2 Ki; for CDK2 Ki fold change in potency versus Comparator D / CDK2 Ki fold change in potency versus Comparator E: in brackets after CDK2 Ki
T2 construct: purchased ProQinase 0050-0055-1
Method in brief: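 Kinase reaction buffer: 50 mM HEPES pH 7.5, 10 mM MgCl2, 2 mM TCEP, 0.05% BGG, 0.01% Brij 35, with 30 min compound–enzyme pre-incubation.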

[3] = biological target: T3, Cyclin Dependent Kinase 4/Cyclin D3 (CDK4-cycD3) (Homo sapiens, UniProt P11802); test: CDK4-cycD3 TR-FRET (LANCE) enzyme assay; assay type: biochemical; conditions: for pKi: Table O, enzymatic assay; for FS CDK4/CDK2: fold selectivity, enzymatic Ki ratio
T3 construct: purchased Carna Biosciences 04-105
T3 sequence (P11802 whole entry): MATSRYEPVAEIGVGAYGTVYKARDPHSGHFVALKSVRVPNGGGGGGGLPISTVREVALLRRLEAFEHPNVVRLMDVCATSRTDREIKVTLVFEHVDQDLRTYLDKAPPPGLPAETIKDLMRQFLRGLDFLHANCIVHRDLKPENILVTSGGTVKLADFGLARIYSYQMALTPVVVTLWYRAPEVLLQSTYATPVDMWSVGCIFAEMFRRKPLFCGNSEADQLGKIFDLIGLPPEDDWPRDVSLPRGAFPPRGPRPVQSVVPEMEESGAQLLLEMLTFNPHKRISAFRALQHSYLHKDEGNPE
T3 sequence (P30281 whole entry partner): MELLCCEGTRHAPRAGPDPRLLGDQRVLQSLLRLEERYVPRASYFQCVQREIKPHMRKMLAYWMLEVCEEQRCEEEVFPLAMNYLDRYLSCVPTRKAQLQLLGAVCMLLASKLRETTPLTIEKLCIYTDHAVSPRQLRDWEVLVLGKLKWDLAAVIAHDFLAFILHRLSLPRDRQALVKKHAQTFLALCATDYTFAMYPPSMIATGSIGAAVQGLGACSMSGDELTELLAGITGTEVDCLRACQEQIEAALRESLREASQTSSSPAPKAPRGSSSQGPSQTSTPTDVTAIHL
Method in brief: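 Compound dose responses pre-incubated 30 min with enzyme mix in 50 mM HEPES pH 7.5, 10 mM MgCl2, 2 mM TCEP, 0.05% BGG, 0.01% Brij 35. Reaction quenched with EDTA (15 mM final); Eu-anti-phospho-4E-BP1 TR-FRET detection, acceptor/donor ratio. Ki derived by Morrison equation.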

[4] = test system: OVISE (JCRB1043, CCNE1-amplified); test: OVISE EdU incorporation cell proliferation assay (CDK2-dependent); assay type: cell-based; conditions: for pIC50 / FS SKOV-3/OVISE / FS p-H3/OVISE: Table O; for pIC50: cellular assay, read-out: CDK2 OVISE IC50; for FS SKOV-3/OVISE / FS p-H3/OVISE: fold selectivity; for FS SKOV-3/OVISE: cellular SKOV-3 IC50 over OVISE IC50; for FS p-H3/OVISE: cellular p-H3 IC50 over OVISE IC50; for CDK2 OVISE IC50 fold change in potency versus Comparator D: Table R; for CDK2 OVISE IC50 fold change in potency versus Comparator D / CDK2 OVISE IC50 fold change in potency versus Comparator E: in brackets after OVISE IC50; for CDK2 OVISE IC50 fold change in potency versus Comparator E: Table S
Method in brief: (§1)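 EdU incorporation (0.5 μM final, last 8 h) follows a 16 h compound exposure at 37 °C, 5% CO2 in RPMI plus 10% FBS, 0.5% DMSO. After fixation, imaging scores EdU-positive cells; a 4-parameter logistic fit of that fraction gives IC50.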

[5] = test system: SKOV-3 (ATCC HTB-77); test: SKOV-3 EdU incorporation cell proliferation assay (CDK4/6-dependent); assay type: cell-based; conditions: for pIC50: Homo sapiens, cellular assay, read-out: CDK4/6 SKOV-3 IC50; for FS SKOV-3/OVISE: fold selectivity, cellular IC50 ratio
Method in brief: as §1

[6] = test system: HCT116 cells; test: p-H3 HCT-116 mitotic release cell proliferation assay (cellular CDK1); assay type: cell-based; conditions: Homo sapiens, HCT-116; Table O, cellular assay; read-out: CDK1 p-H3 IC50
Method in brief: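 Phospho-Histone H3 (Ser10) in lysates was quantified by a two-antibody HTRF FRET read (≥2 h, room temperature). Before this, HCT116 cells held in mitosis by 16 h of 500 nM nocodazole were treated with compound for 4 h at 37 °C, 0.1% DMSO.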

SMILES | pKi [1] | FS CDK1/CDK2 increased over Comparator D, (+) sign ([1]; Table R) | FS CDK1/CDK2 ([1]; Table R) | FS CDK1/CDK2 ([1]; Table S) | pKi ([2]; Table O) | FS CDK1/CDK2 ([2]; Table O) | FS CDK4/CDK2 ([2]; Table O) | pKi ([2]; Table R) | CDK2 Ki fold change in potency versus Comparator D ([2]; Table R) | pKi ([2]; Table S) | CDK2 Ki fold change in potency versus Comparator E ([2]; Table S) | pKi [3] | FS CDK4/CDK2 increased over Comparator D, (+) sign ([3]; Table R) | FS CDK4/CDK2 ([3]; Table R) | FS CDK4/CDK2 ([3]; Table S) | pIC50 [4] | FS SKOV-3/OVISE [4] | FS p-H3/OVISE [4] | pIC50 ([5]; SK-OV-3, Table O) | pIC50 [6] | other results
Cn1cc(Nc2cc([C@H]3CC[C@@H](OC(=O)NC(C)(C)C)C3)[nH]n2)ccc1=O [Example 1, (1R,3S)-3-(3-((1-methyl-6-oxo-1,6-dihydropyridin-3-yl)amino)-1H-pyrazol-5-yl)cyclopentyl tert-butylcarbamate] | 6.57 | (+) | 36 | 36 | 8.12 | 36 | 92 | 8.12 | 0.4 fold | 8.12 | 0.1 fold | 6.15 | (+) | 92 | 92 | 6.66 | >91 | 0.45 | < 4.70 | 7.00 | FS CDK4/CDK2 increased over Comparator E, (+) sign ([3]; Table S): (+); CDK2 OVISE IC50 fold change in potency versus Comparator D [4]: 17 fold; CDK2 OVISE IC50 fold change in potency versus Comparator E [4]: 0.8 fold; pIC50 ([5]; SK-OV-3, Table R): < 4.70; pIC50 ([5]; SK-OV-3, Table S): < 4.70; selectivity for CDK2 over CDK4 compared with Comparator E ([5]; SKOV-3/OVISE fold-selectivity cellular assay data): increase in selectivity for CDK2 over CDK4; FS SKOV-3/OVISE increased over Comparator D, (+) sign ([5]; Table R): (+); FS SKOV-3/OVISE ([5]; Table R): > 91; FS SKOV-3/OVISE increased over Comparator E, (+) sign ([5]; Table S): (+); FS SKOV-3/OVISE ([5]; Table S): > 91
Cc1nc(C#N)ccc1Nc1cc([C@H]2CC[C@@H](OC(=O)NC(C)(C)C)C2)[nH]n1 [Example 10D, (1R,3S)-3-(3-((6-cyano-2-methylpyridin-3-yl)amino)-1H-pyrazol-5-yl)cyclopentyl tert-butylcarbamate] | 7.23 |  |  |  | 9.36 | 134 | 195 |  |  |  |  | 7.07 |  |  |  | 7.34 | 61 | 2.1 | 5.55 | 7.01 | 
CNC(=O)c1ccnc(Nc2cc([C@H]3CC[C@@H](OC(=O)NC(C)(C)C)C3)[nH]n2)c1 [Example 4F, (1R,3S)-3-(3-((4-(methylcarbamoyl)pyridin-2-yl)amino)-1H-pyrazol-5-yl)cyclopentyl tert-butylcarbamate] | 7.28 | (+) | 21 | 21 | 8.60 | 21 | 15 | 8.60 | 1.1 fold | 8.60 | 0.2 fold | 7.43 | (+) | 15 | 15 | 6.72 | 8.9 | 0.35 | 5.77 | 7.18 | CDK2 OVISE IC50 fold change in potency versus Comparator D [4]: 20 fold; CDK2 OVISE IC50 fold change in potency versus Comparator E [4]: 0.9 fold; pIC50 ([5]; SK-OV-3, Table R): 5.77; pIC50 ([5]; SK-OV-3, Table S): 5.77; FS SKOV-3/OVISE increased over Comparator D, (+) sign ([5]; Table R): (+); FS SKOV-3/OVISE ([5]; Table R): 8.9; FS SKOV-3/OVISE ([5]; Table S): 8.9
